Experimental data: paper PMC9950073, “Alleviation of arthritis through prevention of neutrophil extracellular traps by an orally available inhibitor of protein arginine deiminase 4” (Scientific Reports, 2023)
Values after ≈ are worked out from the molar mass of the structure shown.

Tests used:
human neutrophils = test: In vitro NET assay, human neutrophils; type: cell-based; details: 10 μM, ionomycin 4 µM 4 h
From the text: All blood samples from healthy donors who participated in this study were obtained after informed consent in accordance with relevant guidelines and regulations given by the ACE Independent ethics committee for Jubilant Biosys Ltd and Office of Clinical Investigations at Boston Children’s Hospital. The ACE Independent ethics committee, Bangalore, approved the use of human whole blood/PBMC/Enriched Subset in Jubilant Biosys Ltd investigations, Drug Controller General of India (DCGI) Reg No. ECR/141/Indt/KA/2013. Briefly, 10 mL K2EDTA vacutainers were used to collect fresh blood from healthy donors (BD vacutainer, Catalog No: BD 367525). A total of 50 ml of blood was taken from a single, healthy human donor. Neutrophils were isolated from human blood using the EasySep Direct Human Neutrophil Isolation Kit, according to the manufacturer's instructions (Stem Cell Technology, Catalog No: 19666). […]
Mouse or human neutrophils were resuspended in HEPES-supplemented phenol red-free RPMI1640 medium and 1.5 × 10^4 cells were seeded per well in a 96-well plate. […] Images were obtained with a Zeiss Axiovert 200 M wide-field fluorescence microscope (Zeiss, Oberkochen, Germany) with the Zeiss AxioVision software. The percentages of H4Cit positive neutrophils and neutrophil extracellular traps (NETs) were calculated by quantifying more than 200 randomly selected cells. […]

PBMCs = test: Cell Titer Glo viability assay, PBMC; type: cell-based, human; details: 24 h, up to 10 µM
Method: In a K2EDTA vacutainer, 50 mL blood from a healthy human donor was collected, diluted 1:1 with PBS, and gently layered on Histopaque-1077. The tube was centrifuged at 400 g for 30 min at room temperature in a swinging bucket rotor without brakes or acceleration. After centrifugation, the tubes were gently removed from the centrifuge to avoid disturbing the layers of RBC at the bottom, PBMC in the middle, and clear supernatant at the top. Plasma and platelet-rich upper layer was aspirated using a sterile pipette leaving the mononuclear cell layer (buffy coat) undisturbed at the interphase. This buffy coat layer was transferred with care to a fresh conical 50 mL tube, resuspended in PBS buffer and the tube was centrifuged for 10 min at 300 g at room temperature, and the resultant cell pellet was resuspended in complete RPMI medium. After repeating this step twice, the resultant isolated cells were used for the experiments.
The CellTiter-Glo luminescent cell viability assay was performed on neutrophils/peripheral blood mononuclear cells according to the manufacturer’s instructions (Promega, catalog number: G7570)[35]. Breifly, 0.25 million cells of Neutrophils /PBMC were seeded in a black 96 well clear bottom plate. Compound was added at desired concentrations in 1% DMSO. […] Luminescence was recorded with Perkin Elmer envision 2103 multilabel reader.

Solubility = type: physicochemical
From the text: Supplement 41598_2023_30246_MOESM1_ESM.docx, table 2: Supplementary Table S2. In vitro ADME parameters of JBI-589 | column: 90

[1] = Microsomal stability, DLM; type: in vitro ADME, dog; details: 1 µM, liver microsomes 0.5 mg/mL; one range given for HLM/MLM/DLM/RLM
Method: Microsomal stability: Liver microsomes (0.5 mg/mL) from different species were incubated with JBI-589 (1 µM) with or without NADPH (1 mM) at 37 °C for 30 min in potassium phosphate buffer (pH 7.4) and then reaction was stopped with quenching solution (0.5% Formic acid in internal standard (IS) containing ACN). Resulting samples were centrifuged and supernatant was taken for LC–MS/MS analysis. Percent metabolism was calculated as follows: % Metabolized: [1 − (test area ratio/control area ratio)] *100.

CYP2C19 = target: T1, CYP2C19 (Homo sapiens, UniProt P33261); test: CYP inhibition in human liver microsome, CYP2C19; type: in vitro ADME
T1 construct: from tissue; host or cells: human liver microsomes
T1 sequence (P33261 whole entry): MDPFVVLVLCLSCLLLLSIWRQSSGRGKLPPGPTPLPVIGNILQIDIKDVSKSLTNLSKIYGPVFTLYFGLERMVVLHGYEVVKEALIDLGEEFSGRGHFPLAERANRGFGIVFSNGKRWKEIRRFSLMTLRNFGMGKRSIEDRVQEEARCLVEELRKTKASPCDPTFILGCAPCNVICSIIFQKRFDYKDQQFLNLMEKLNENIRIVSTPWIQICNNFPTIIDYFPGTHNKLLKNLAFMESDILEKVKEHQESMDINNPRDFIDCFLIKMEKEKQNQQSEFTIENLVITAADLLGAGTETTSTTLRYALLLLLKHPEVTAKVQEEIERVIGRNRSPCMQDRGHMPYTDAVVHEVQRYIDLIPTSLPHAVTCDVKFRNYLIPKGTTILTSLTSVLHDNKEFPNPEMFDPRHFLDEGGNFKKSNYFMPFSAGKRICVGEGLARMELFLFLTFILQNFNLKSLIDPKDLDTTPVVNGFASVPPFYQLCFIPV
Method: CYP inhibition: Human liver microsome (0.1–0.5 mg/mL for various CYPs) and appropriate probe substrates (2.5–20 µM) were incubated in potassium phosphate buffer with or without JBI-589 for 5 min at 37 °C. The reaction was initiated by addition of NADPH (1 mM), incubated at 37 °C for 10 min and quenched (0.5% Formic acid in internal standard (IS) containing ACN). Samples were then centrifuged and taken for LC–MS/MS analysis. Percent change in metabolite formation for each substrate under above conditions using formula: Percent inhibition = [1 − (test area ratio/control area ratio)] *100.

In the case of `Cc1c(-c2cc3ccccc3n2Cc2ccc(F)cc2)nc2cc(C(=O)N3CCC[C@@H](N)C3)ccn12` [JBI-589, (R)-(3-aminopiperidin-1-yl)(2-(1-(4-fluorobenzyl)-1H-indol-2-yl)-3-methylimidazo[1,2-a]pyridin-7-yl)methanone], the H4Cit positivity (human neutrophils) is reported as “the same effect was confirmed”, the NET formation (human neutrophils) is reported as “the same effect was confirmed” and the “viability of PBMCs” value (PBMCs) is reported as “minimal or no changes”. The solubility (Solubility) was 90 µM (≈ 43.3 µg/mL), the “DLM % metabolized @ 30 min” value [1] was 25-50% and the inhibition at 10 min, 10 µM (CYP2C19; human liver microsomes, 10 µM, human liver microsome, read-out: CYP2C19 inhibition (% inh @10 µM)) was < 50%. The IC50 (CYP2C19; predicted from % inhibition, text says major CYPs tested) was > 10 µM.
